Experimental data taken from US10196436B2, “Inhibitors of the fibroblast growth factor receptor” (BLUEPRINT MEDICINES CORPORATION, priority 2012, dated 2019).
Where two headings read alike, the source gives them in different places.

What was measured:
[1] = test system: MDA-MB-453 cells, which harbor an activating FGFR4 mutation; experiment: Cellular potency: phosphorylation of Erk in MDA-MB-453 cells (immunoblot); conditions: Homo sapiens, MDA-MB-453, 1 h, read-out: Potency (pErk IC50)
Method: Dose response in MDA-MB-453 cells, which harbor an activating FGFR4 mutation, was measured as follows. Briefly, MDA-MB-453 cells were seeded at 2.5×10^6 cells/6 well, and starved overnight. Compounds were added at varying concentrations (3000, 1000, 300, 100, and 30 nM) for 1 hour. Samples were collected and lysed for immunoblot analysis. The phosphorylation of Erk was measured and the average pErk value of three replicates was plotted with three parameter dose-response (inhibition) curve fit using Prism GraphPad software, which was used to determine the IC50 values.

wild type FGFR-4 = wild type FGFR-4 (Homo sapiens (Human), UniProt P22455); experiment: FGFR-4 wild type assay at Km (Caliper electrophoretic mobility shift); assay type: biochemical; conditions: for IC50: read-out: FGFR4 IC50; for Ratio FGFR1/FGFR4: [IC50 for FGFR1]/[IC50 for FGFR4]
Chain of wild type FGFR-4 (P22455 22-802): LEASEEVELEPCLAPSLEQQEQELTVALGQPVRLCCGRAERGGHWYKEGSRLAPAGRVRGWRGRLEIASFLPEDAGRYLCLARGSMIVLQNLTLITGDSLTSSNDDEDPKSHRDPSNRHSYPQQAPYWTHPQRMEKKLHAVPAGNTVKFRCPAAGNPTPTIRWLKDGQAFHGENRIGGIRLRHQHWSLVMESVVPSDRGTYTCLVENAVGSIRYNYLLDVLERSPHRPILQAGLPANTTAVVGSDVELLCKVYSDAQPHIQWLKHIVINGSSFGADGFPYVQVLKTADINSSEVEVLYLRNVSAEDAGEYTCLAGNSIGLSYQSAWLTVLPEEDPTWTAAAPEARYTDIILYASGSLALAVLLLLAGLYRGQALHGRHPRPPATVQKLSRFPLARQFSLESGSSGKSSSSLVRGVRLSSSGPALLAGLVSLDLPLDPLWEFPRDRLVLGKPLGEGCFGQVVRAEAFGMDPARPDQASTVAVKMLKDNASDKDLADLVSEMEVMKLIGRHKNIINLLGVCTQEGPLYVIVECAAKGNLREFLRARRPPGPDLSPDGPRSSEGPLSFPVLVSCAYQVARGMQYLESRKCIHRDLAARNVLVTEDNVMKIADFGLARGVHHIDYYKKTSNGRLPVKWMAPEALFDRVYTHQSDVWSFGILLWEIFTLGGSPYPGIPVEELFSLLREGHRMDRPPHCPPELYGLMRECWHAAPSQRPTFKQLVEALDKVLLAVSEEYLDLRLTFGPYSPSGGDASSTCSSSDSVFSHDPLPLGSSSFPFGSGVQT
Method: (§1) In order to assess the activity of chemical compounds against the relevant kinase of interest, the Caliper LifeSciences electrophoretic mobility shift technology platform is utilized. Fluorescently labeled substrate peptide is incubated in the presence dosed levels of compounds, a set concentration of kinase and of ATP, so that a reflective proportion of the peptide is phosphorylated. At the end of the reaction, the mix of phosphorylated (product) and non-phosphorylated (substrate) peptides are passed through the microfluidic system of the Caliper LabChip® EZ Reader II, under an applied potential difference. The presence of the phosphate group on the product peptide provides a difference in mass and charge between the product peptide and the substrate peptide, resulting in a separation of the substrate and product pools in the sample. As the pools pass the LEDS within the instrument, these pools are detected and resolved as separate peaks. The ratio between these peaks therefore reflects the activity of the chemical matter at that concentration in that well, under those conditions.
The reaction was stopped by the addition of 70 ul of Stop buffer (100 mM HEPES pH 7.5, 0.015% Brij 35, 35 mM EDTA and 0.2% of Coating Reagent 3 (Caliper Lifesciences)). The plate was then read on a Caliper LabChip® EZ Reader II (protocol settings: −1.9 psi, upstream voltage −700, downstream voltage −3000, post sample sip 35 s).

panel of kinase assays = experiment: Kinase panel selectivity score from percent of DMSO control; conditions: kinases with POC less than 10 at 3 μM divided by total distinct kinases tested
wild type FGFR-1 = wild type FGFR-1 (Homo sapiens (Human), UniProt P11362); experiment: FGFR-1 wild type assay at Km (Caliper electrophoretic mobility shift); assay type: biochemical; conditions: 400 uM ATP, 90 minutes, 25 C; read-out: FGFR1 IC50
Chain of wild type FGFR-1 (P11362 22-822): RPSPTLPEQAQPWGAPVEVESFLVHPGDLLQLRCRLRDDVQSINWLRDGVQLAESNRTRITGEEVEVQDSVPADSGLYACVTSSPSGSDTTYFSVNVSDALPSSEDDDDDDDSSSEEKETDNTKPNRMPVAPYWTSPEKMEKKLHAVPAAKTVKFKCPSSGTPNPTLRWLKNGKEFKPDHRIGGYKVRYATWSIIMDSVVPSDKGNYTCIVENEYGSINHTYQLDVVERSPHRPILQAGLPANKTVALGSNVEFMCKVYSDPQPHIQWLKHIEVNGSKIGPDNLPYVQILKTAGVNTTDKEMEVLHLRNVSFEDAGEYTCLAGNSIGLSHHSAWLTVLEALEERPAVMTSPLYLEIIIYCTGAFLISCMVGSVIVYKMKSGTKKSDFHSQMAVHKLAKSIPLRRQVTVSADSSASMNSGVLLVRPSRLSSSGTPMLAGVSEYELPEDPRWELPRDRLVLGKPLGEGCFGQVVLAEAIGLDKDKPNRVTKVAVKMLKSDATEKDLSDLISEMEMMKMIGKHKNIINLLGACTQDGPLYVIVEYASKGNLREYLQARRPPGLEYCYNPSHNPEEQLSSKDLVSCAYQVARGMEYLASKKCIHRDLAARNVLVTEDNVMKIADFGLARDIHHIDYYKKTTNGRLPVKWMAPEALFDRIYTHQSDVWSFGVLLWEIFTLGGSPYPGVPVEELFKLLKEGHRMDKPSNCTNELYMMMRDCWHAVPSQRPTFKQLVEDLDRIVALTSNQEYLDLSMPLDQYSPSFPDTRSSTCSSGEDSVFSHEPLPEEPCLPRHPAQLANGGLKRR
Method: as §1
The reaction was stopped by the addition of 70 ul of Stop buffer (100 mM HEPES pH 7.5, 0.015% Brij 35, 35 mM EDTA and 0.2% of Coating Reagent 3 (Caliper Lifesciences)). The plate was then read on a Caliper EZReader 2 (protocol settings: −1.9 psi, upstream voltage −700, downstream voltage −3000, post sample sip 35 s).

Hep3B xenograft tumors = experiment: Hep3B liver cancer cell subcutaneous xenograft model, tumor growth inhibition; assay type: in vivo, Mus Musculus
Method: […] female nude mice (Mus Musculus) age 6 to 8 weeks were used. Tumor cell culture and inoculation: Hep3B cells were cultured with EMEM medium (Invitrogen, USA) supplemented with 10% FBS (Gibco, Australia). The cells were harvested in 90% confluence, and the viability was no less than 90%. Mice were implanted subcutaneously (s.c.) with 200 μL of 10×10^6 Hep3B cells in 50% Matrigel in the right flank at the beginning of the study.
Animal grouping and dosing schedule: Ten days after cell implantation, when tumors reached an average volume of 199 mm^3, 45 mice were selected based on tumor volume and randomly assigned to 5 treatment groups (n=9). The day of randomization was denoted as Do and the treatment was started from then on.
Tumor volume and body weight measurements: Tumor size was measured twice per week in two dimensions using a caliper, and the volume was expressed in mm^3 using the formula: V=0.5 a×b^2 where a and b were the long and short diameters of the tumor, respectively. Body weight was measured at least twice weekly.

Hep3B cells = experiment: Induction of apoptosis, Caspase-Glo3/7 assay in Hep3B cells; assay type: cell-based; conditions: 6 hours
Method: Hep3B cells were seeded at 20 k/well in 96-well white plates in 200 ul of DMEM/5% FBS overnight. The next day compound was added at a final DMSO concentration of 0.1% and incubated for 6 hours. Caspase activity was measured according to manufacture instruction (Caspase-Glo3/7 Assay (Promega)). Briefly, 100 ul of Caspase-Glo3/7 reagent was added to each well and incubated for 1 hour in the dark. Luminescence was measured using EnVision.

SMILES	IC50 [1] [nM]	IC50 (wild type FGFR-4; 400 uM ATP, 90 minutes, 25 C) [nM]	Ratio FGFR1/FGFR4 (wild type FGFR-4)	IC50 (wild type FGFR-1) [nM]	other results
C=CC(=O)Nc1cccc(C)c1Nc1ncc2cc(-c3c(Cl)c(OC)cc(OC)c3Cl)c(=O)n(C)c2n1 [COMPOUND 43, N-(2-((6-(2,6-dichloro-3,5-dimethoxyphenyl)-8-methyl-7-oxo-7,8-dihydropyrido[2,3-d]pyrimidin-2-yl)amino)-3-methylphenyl)acrylamide]	< 1				
C=CC(=O)N(CCCCN(CC)CC)c1ncc2cc(-c3c(Cl)c(OC)cc(OC)c3Cl)c(NC(=O)NC(C)(C)C)nc2n1 [COMPOUND 55, N-(7-(3-(tert-butyl)ureido)-6-(2,6-dichloro-3,5-dimethoxyphenyl)pyrido[2,3-d]pyrimidin-2-yl)-N-(4-(diethylamino)butyl) acrylamide]		< 10	A (the ratio is >500)		selectivity score [S(10) @3 μM] (panel of kinase assays): ≤ 0.030
C=CC(=O)Nc1cccc(C)c1Nc1cc2c(cn1)cc(-c1cc(OC)cc(OC)c1)c(=O)n2C [COMPOUND 18]	10 to 100			> 1000	
C#CC(=O)NCc1cccn2c(-c3cc(NC(=O)NCC(F)(F)F)cc(OC(C)C)c3)cnc12 [COMPOUND 20, N-((3-(3-isopropoxy-5-(3-(2,2,2-trifluoroethyl)ureido)phenyl)imidazo[1,2-a]pyridin-8-yl)methyl)propiolamide]	> 100			> 1000	
C=CC(=O)Nc1cccc(C)c1Nc1ncc2cc(-c3c(Cl)c(OC)cc(OC)c3Cl)cc(F)c2n1 [COMPOUND 34, N-(2-((6-(2,6-dichloro-3,5-dimethoxyphenyl)-8-fluoroquinazolin-2-yl)amino)-3-methylphenyl)acrylamide]	1 to 10				IC50 (wild type FGFR-4): < 10 nM
CNC(=O)c1cc(Oc2ccc(NC(=O)Nc3ccc(Cl)c(C(F)(F)F)c3)cc2)ccn1 [Sorafenib, reference compound]					tumor volume vs vehicle group (Hep3B xenograft tumors; 30 mg/kg PO QD, Day 4 to Day 19, nude mice): Statistically significant reduction of tumor volumes
C=CC(=O)Nc1cccc(F)c1Nc1cc2c(cn1)cc(-c1c(Cl)c(OC)cc(OC)c1Cl)c(=O)n2C [COMPOUND 46]	< 1	< 10	E (the ratio is >10 and <50)		
C=CC(=O)Nc1ccccc1-c1ccn2c(-c3cc(NC(=O)NCC(F)(F)F)cc(OC(C)C)c3)cnc2c1 [COMPOUND 38, N-(2-(3-(3-isopropoxy-5-(3-(2,2,2-trifluoroethyl)ureido)phenyl)imidazo[1,2-a]pyridin-7-yl)phenyl)acrylamide]	10 to 100		E (the ratio is >10 and <50)		
C=CC(=O)Nc1cccc(C)c1Nc1ncc2cc(-c3cc(OC)cc(OC)c3)cnc2n1 [COMPOUND 10, N-(2-((6-(3,5-dimethoxyphenyl)pyrido[2,3-d]pyrimidin-2-yl)amino)-3-methylphenyl)acrylamide]		> 1000	E (the ratio is >10 and <50)	> 1000	
C=CC(=O)Nc1cccc(C)c1Nc1cc2c(cn1)cc(-c1c(Cl)c(OC)cc(OC)c1Cl)c(=O)n2C [COMPOUND 39]	< 1	< 10	E (the ratio is >10 and <50)	> 1000	
C=CC(=O)Nc1ccccc1Nc1cc2c(cn1)cc(-c1c(Cl)c(OC)cc(OC)c1Cl)c(=O)n2C [COMPOUND 31]	< 1	< 10	B (the ratio is ≥200 and <500)		
C=CC(=O)Nc1cccc(C)c1Nc1ncc2cc(-c3c(Cl)cccc3Cl)c(=O)n(C)c2n1 [COMPOUND 22]			B (the ratio is ≥200 and <500)	> 1000	
C=CC(=O)Nc1cccc(C)c1Nc1ncc2cc(-c3cc(C(N)=O)ccc3F)ccc2n1 [COMPOUND 9]			D (the ratio is ≥50 and <100)	> 1000	
C=CC(=O)Nc1cccc(Cl)c1Nc1ncc2cc(-c3cc(C(N)=O)ccc3C)ccc2n1 [COMPOUND 17]			B (the ratio is ≥200 and <500)	> 1000	
C=CC(=O)Nc1cccc(C)c1Nc1ncc2cc(-c3c(Cl)c(OC)cc(OC)c3Cl)cnc2n1 [COMPOUND 26, N-(2-((6-(2,6-dichloro-3,5-dimethoxyphenyl)pyrido[2,3-d]pyrimidin-2-yl)amino)-3-methylphenyl)acrylamide]	1 to 10	< 10	A (the ratio is >500)		
C=CC(=O)Nc1cc(Cl)cc(C)c1Nc1ncc2cc(-c3c(Cl)c(OC)cc(OC)c3Cl)ccc2n1 [COMPOUND 49]			A (the ratio is >500)	> 1000	
C=CC(=O)Nc1cccc(F)c1Nc1ncc2cc(-c3c(Cl)c(OC)cc(OC)c3Cl)ccc2n1 [COMPOUND 27]	1 to 10	< 10	C (the ratio is ≥100 and <200)		selectivity score [S(10) @3 μM] (panel of kinase assays): ≤ 0.030
C=CC(=O)Nc1ccc(F)c(C)c1Nc1ncc2cc(-c3c(Cl)c(OC)cc(OC)c3Cl)ccc2n1 [COMPOUND 33]	1 to 10		F (the ratio of [IC50 for FGFR1]/[IC50 for FGFR4] is less than 10)	> 1000	
COc1cc(CCc2cc(NC(=O)c3ccc(N4CC(C)NC(C)C4)cc3)n[nH]2)cc(OC)c1 (stereo not drawn) [BGJ398, reference compound]					induction of apoptosis (caspase activity) (Hep3B cells): induction of apoptosis, although at a higher concentration; tumor volume vs vehicle group (Hep3B xenograft tumors; 20 mg/kg PO QD, entire study, nude mice): significant difference in tumor volume between BGJ398 (20 mg/kg PO QD) and vehicle groups was not observed
C=CC(=O)Nc1cccc(C)c1Nc1ncc2nc(-c3c(Cl)c(OC)cc(OC)c3Cl)c(=O)n(C)c2n1 [COMPOUND 45, N-(2-((6-(2,6-dichloro-3,5-dimethoxyphenyl)-8-methyl-7-oxo-7,8-dihydropteridin-2-yl)amino)-3-methylphenyl)acrylamide]	< 1	< 10	E (the ratio is >10 and <50)	> 1000	
C=CC(=O)Nc1cccc(C)c1Nc1ncc2cc(-c3c(Cl)c(OC)cc(OC)c3Cl)cc(OC)c2n1 [COMPOUND 41]	1 to 10	< 10	A (the ratio is >500)		selectivity score [S(10) @3 μM] (panel of kinase assays): ≤ 0.030
C=CC(=O)Nc1cc(N2CCOCC2)cc(C)c1Nc1ncc2cc(-c3c(Cl)c(OC)cc(OC)c3Cl)ccc2n1 [COMPOUND 53]	1 to 10	< 10	C (the ratio is ≥100 and <200)		
C=CC(=O)N(C)c1ncc2cc(-c3c(Cl)c(OC)cc(OC)c3Cl)ccc2n1 [COMPOUND 7]		< 10	A (the ratio is >500)	> 1000	
